Measured values reported in patent US11396511B2, “Substituted 9,13b-dihydro-1H-dibenzo[c,f]imidazo[1,5-a]azepin-3-ylbenzamides as anti-inflammatory and analgesic agents” (FRONTBIO CO., LTD., priority 2017, dated 2022).

Experiments:
mice [1] = assay: Hot-plate test; assay type: in vivo; details: for response time to the thermal stimulus (hot-plate): 30 min pretreatment, in s (unit assumed)
Procedure: Hot-plate test was conducted using an electric heater to measure the analgesic activity of the test substances on the acute thermal stimulus. Experimental animals were injected with the test drugs and a vehicle (control) and were sequentially placed on an electric heater (hot-plate). The response time to the thermal stimulus ([…]) was defined as the time until the experimental animal licked their paws. Male mice weighing 22-25 g, aged 4-5 weeks, were used as the test animals (10 per group).
30 min after pretreatment with the compound 3 (E-S) at concentrations of 10, 20, 40, and 80 mg/kg, hot-plate test was conducted to assess the analgesic efficacy of the compound 3. […] The analgesic efficacy of the compound 4 (E-A) was assessed in the same manner as that of the compound 3.

[2] = test system: streptozotocin-induced diabetic mice; assay: Von-frey test in diabetic neuropathy models; assay type: in vivo; design: threshold values (Von-frey test): unit not given here
Procedure: 65 mg/kg of streptozotocin (Sigma Corp., USA) was dissolved at a concentration of 15 mg/ml in 0.1 M citrate buffer at pH 4.5 and the resulting solution was administered intraperitoneally to mice. Blood glucose levels were measured 1 week after administration and streptozotocin-induced diabetic mice were chosen.
(§1) After damage to the sciatic nerve, allodynia induced by the mechanical stimulus was measured. Mice were housed in acrylic chambers on a steel mesh floor and acclimated for ≥60 min before testing. Continuous responses were evaluated using Von-frey filaments by the up-down method. The filaments were brought into vertical contact with the affected left soles and the contact was maintained for 5-6 sec. The response was considered to be positive when the mouse rapidly avoided the stimulus, startled or licked its sole. The Von-frey filaments were first used to stimulate the mice.
The inhibitory effects of the test substances on pain were determined in diabetic neuropathy models. To this end, after oral administration of each test substance at concentrations of 10, 20, 40, and 80 mg/kg, threshold values were measured at different periods of time through Von-frey test.

mice [3] = assay: Formalin test (5% formalin, hind foot sole); assay type: in vivo; design: formalin test pain response: unit not given beside the values
Procedure: 5% formalin was injected subcutaneously into the soles of the hind feet of mice. The mice licked their soles and shook their paws owing to formalin-induced pain. At 20-40 min post-injection (2nd phase), the mice again licked their soles or shook their paws. Pain felt for 5 min post-injection (1st phase) is the same level as the sensation of pain when the body is harmfully stimulated. Pain between 20 and 40 min (2nd phase) is mainly tonic inflammatory pain and is known to be very similar to pain after a big surgical operation.
30 min after pretreatment with the compound 3 (E-S) at concentrations of 10, 20, 40, and 80 mg/kg, formalin test was conducted to assess the analgesic efficacy of the compound 3. […] The analgesic efficacy of the compound 4 (E-A) was assessed in the same manner as that of the compound 3.

mice [4] = assay: Writhing test (1% acetic acid intraperitoneally); assay type: in vivo; details: for numbers of stretching and writhing movements: 30 min pretreatment
Procedure: In accordance with the most common method for measuring the analgesic efficacies of the test substances in the peripheral nerve based on abdominal contraction responses as indices, 1% acetic acid was administered intraperitoneally to mice to induce damage or pain of the abdominal peripheral vessels. After acetic acid administration, the behavioral profiles of the mice were observed and the numbers of stretching and writhing movements of the mice were counted to determine the analgesic efficacies of the test substances.
30 min after pretreatment with the compound 3 (E-S) at concentrations of 10, 20, 40, and 80 mg/kg, writhing test was conducted to assess the analgesic efficacy of the compound 3. As a result, the analgesic efficacy of the compound 3 was concentration-dependent (FIG. 4a and Table 4). The analgesic efficacy of the compound 4 (E-A) was assessed in the same manner as that of the compound 3.

[5] = test system: monosodium urate (MSU) models; assay: Von-frey test in monosodium urate models; assay type: in vivo, mice; design: threshold values (Von-frey test): unit not given here; details: monosodium urate model
Procedure: 100 mg of uric acid and 60 μl of 10 N NaOH were dissolved in 20 ml of distilled water and the pH of the solution was adjusted to 7.2-7.4 with HCl (1 N) at 60° C. After stirring at room temperature for 5 days, the solution was plated in a 1 ml tube and stored for 4 days. The solution was vortexed overnight until needle-like crystals appeared. The solution was washed twice with 100% ethanol and centrifuged at 3000 rpm for 2 min. Finally, the MSU crystals were collected and dissolved in […] of endotoxin-free PBS. The resulting sample were injected intra-articularly into mice (MSU 300 μg/10 μl each) under anesthesia. At 24 h post-injection, pain or ankle swelling were measured to determine the analgesic efficacy of a test substance.
as §1
The analgesic efficacies of the test substances were evaluated in monosodium urate models. To this end, after oral administration of each test substance at concentrations of 10, 20, 40, and 80 mg/kg, threshold values were measured at different periods of time through Von-frey test.

[6] = oral 10, 20, 40, 80 mg/kg tested

`O=C(NC1=NCC2c3ccccc3Cc3ccccc3N12)c1ccccc1O` (stereo not shown) [E-S, N-(9,13b-dihydro-1H-dibenzo[c,f]imidazo[1,5-a]azepin-3-yl)-2-hydroxybenzamide] was tested, and the “response time to the thermal stimulus (hot-plate)” value (“response time” below) (mice [1]; 10 mg/kg) was 8.64, the “response time” value (mice [1]; 20 mg/kg) was 13.34 and the “response time” value (mice [1]; 40 mg/kg) was 15.52. The “response time” value (mice [1]; 80 mg/kg) was 19.30, the “analgesic efficacy in hot-plate test (in words)” value (mice [1]; 10, 20, 40, 80 mg/kg) was “significant at 40 and 80 mg/kg” and the “threshold values (Von-frey test)” value ([2]; oral 10 mg/kg, 1 h) was 0.247. The “threshold values (Von-frey test)” value ([2]; oral 10 mg/kg, 2 h) was 0.208, the “threshold values (Von-frey test)” value ([2]; oral 10 mg/kg, 3 h) was 0.363 and the “threshold values (Von-frey test)” value ([2]; oral 10 mg/kg, 4 h) was 0.330. The “threshold values (Von-frey test)” value ([2]; oral 10 mg/kg, 5 h) was 0.286, the “threshold values (Von-frey test)” value ([2]; oral 10 mg/kg, basal) was 0.247 and the “threshold values (Von-frey test)” value ([2]; oral 20 mg/kg, 1 h) was 0.286. The “threshold values (Von-frey test)” value ([2]; oral 20 mg/kg, 2 h) was 0.208, the “threshold values (Von-frey test)” value ([2]; oral 20 mg/kg, 3 h) was 0.314 and the “threshold values (Von-frey test)” value ([2]; oral 20 mg/kg, 4 h) was 0.186. For the same compound, the “threshold values (Von-frey test)” value ([2]; oral 20 mg/kg, 5 h) was 0.324, the “threshold values (Von-frey test)” value ([2]; oral 20 mg/kg, basal) was 0.208 and the “threshold values (Von-frey test)” value ([2]; oral 40 mg/kg, 1 h) was 0.314. The “threshold values (Von-frey test)” value ([2]; oral 40 mg/kg, 2 h) was 0.391, the “threshold values (Von-frey test)” value ([2]; oral 40 mg/kg, 3 h) was 0.352 and the “threshold values (Von-frey test)” value ([2]; oral 40 mg/kg, 4 h) was 0.314. For the same compound, the “threshold values (Von-frey test)” value ([2]; oral 40 mg/kg, 5 h) was 0.391, the “threshold values (Von-frey test)” value ([2]; oral 40 mg/kg, basal) was 0.225 and the “threshold values (Von-frey test)” value ([2]; oral 80 mg/kg, 1 h) was 0.613. The “threshold values (Von-frey test)” value ([2]; oral 80 mg/kg, 2 h) was 0.574, the “threshold values (Von-frey test)” value ([2]; oral 80 mg/kg, 3 h) was 0.391 and the “threshold values (Von-frey test)” value ([2]; oral 80 mg/kg, 4 h) was 0.419. The “threshold values (Von-frey test)” value ([2]; oral 80 mg/kg, 5 h) was 0.225, the “threshold values (Von-frey test)” value ([2]; oral 80 mg/kg, basal) was 0.164 and the “analgesic efficacy, Von-frey test (in words)” value ([2]; oral 10, 20, 40, 80 mg/kg) was “concentration-dependent until 1-2 h after treatment”. The “concentration of highest analgesic efficacy, Von-frey test” value [2, 6] was 80 mg/kg, the “formalin test pain response” value (mice [3]; 10 mg/kg, first column group (1st phase, not given)) was 66.25 and the “formalin test pain response” value (mice [3]; 10 mg/kg, second column group (2nd phase, not given)) was 48.5. For the same compound, the “formalin test pain response” value (mice [3]; 20 mg/kg, first column group (1st phase, not given)) was 60.5, the “formalin test pain response” value (mice [3]; 20 mg/kg, second column group (2nd phase, not given)) was 48.25 and the “formalin test pain response” value (mice [3]; 40 mg/kg, first column group (1st phase, not given)) was 60.5. The “formalin test pain response” value (mice [3]; 40 mg/kg, second column group (2nd phase, not given)) was 45.0, the “formalin test pain response” value (mice [3]; 80 mg/kg, first column group (1st phase, not given)) was 52.0 and the “formalin test pain response” value (mice [3]; 80 mg/kg, second column group (2nd phase, not given)) was 44.5. The “analgesic efficacy in formalin test (in words)” value (mice [3]; 10, 20, 40, 80 mg/kg) was “observed in the 2nd phase”, the “numbers of stretching and writhing movements” value (“numbers” below) (mice [4]; 10 mg/kg) was 33.75 and the “numbers” value (mice [4]; 20 mg/kg) was 29.75. The “numbers” value (mice [4]; 40 mg/kg) was 23.75, the “numbers” value (mice [4]; 80 mg/kg) was 12.75 and the “analgesic efficacy in writhing test (in words)” value (mice [4]; 10, 20, 40, 80 mg/kg) was “concentration-dependent”. For the same compound, the “threshold values (Von-frey test)” value ([5]; oral 10 mg/kg, 1 h, 10 mg/kg) was 0.173, the “threshold values (Von-frey test)” value ([5]; oral 10 mg/kg, 2 h, 10 mg/kg) was 0.211 and the “threshold values (Von-frey test)” value ([5]; oral 10 mg/kg, 3 h, 10 mg/kg) was 0.148. The “threshold values (Von-frey test)” value ([5]; oral 10 mg/kg, 4 h, 10 mg/kg) was 0.166, the “threshold values (Von-frey test)” value ([5]; oral 10 mg/kg, 5 h, 10 mg/kg) was 0.107 and the “threshold values (Von-frey test)” value ([5]; oral 10 mg/kg, basal) was 0.127. For the same compound, the “threshold values (Von-frey test)” value ([5]; oral 20 mg/kg, 1 h, 20 mg/kg) was 0.194, the “threshold values (Von-frey test)” value ([5]; oral 20 mg/kg, 2 h, 20 mg/kg) was 0.163 and the “threshold values (Von-frey test)” value ([5]; oral 20 mg/kg, 4 h, 20 mg/kg) was 0.207. The “threshold values (Von-frey test)” value ([5]; oral 20 mg/kg, 5 h, 20 mg/kg) was 0.194, the “threshold values (Von-frey test)” value ([5]; oral 20 mg/kg, basal) was 0.127 and the “threshold values (Von-frey test)” value ([5]; oral 40 mg/kg, 1 h, 40 mg/kg) was 0.183. For the same compound, the “threshold values (Von-frey test)” value ([5]; oral 40 mg/kg, 2 h, 40 mg/kg) was 0.214, the “threshold values (Von-frey test)” value ([5]; oral 40 mg/kg, 3 h, 40 mg/kg) was 0.278 and the “threshold values (Von-frey test)” value ([5]; oral 40 mg/kg, 4 h, 40 mg/kg) was 0.257. For the same compound, the “threshold values (Von-frey test)” value ([5]; oral 40 mg/kg, 5 h, 40 mg/kg) was 0.152, the “threshold values (Von-frey test)” value ([5]; oral 40 mg/kg, basal) was 0.127 and the “threshold values (Von-frey test)” value ([5]; oral 80 mg/kg, 1 h, 80 mg/kg) was 0.239. The “threshold values (Von-frey test)” value ([5]; oral 80 mg/kg, 2 h, 80 mg/kg) was 0.439, the “threshold values (Von-frey test)” value ([5]; oral 80 mg/kg, 3 h, 80 mg/kg) was 0.301 and the “threshold values (Von-frey test)” value ([5]; oral 80 mg/kg, 4 h, 80 mg/kg) was 0.267. The “threshold values (Von-frey test)” value ([5]; oral 80 mg/kg, 5 h, 80 mg/kg) was 0.155, the “threshold values (Von-frey test)” value ([5]; oral 80 mg/kg, basal) was 0.138 and the “analgesic efficacy, Von-frey test (in words)” value ([5]; oral 10, 20, 40, 80 mg/kg) was “concentration-dependent until 2 h after treatment”. For the same compound, the “concentration of highest analgesic efficacy, Von-frey test” value [5, 6] was 80 mg/kg.
